Measured values taken from patent publication US11206830B2, “Herbicidal composition comprising glufosinate or a salt thereof and pyroxasulfone” (BASF SE, priority 2008, dated 2021).
Where “and” joins values, the source holds several entries; their conditions need not be identical. Equal entries are not always repeated. Where two headings read alike, the source gives them in different places.

Experiments:
Format in all cases: in vivo
[1] = tested on: Amaranthus retroflexus (AMARE); experiment: greenhouse post-emergence herbicidal activity on AMARE; conditions: 480 h, read-out: % activity 20 DAT
From the text: (§1) For the post-emergence treatment, the test plants were first grown to a height of 3 to 20 cm, depending on the plant habit, and only then treated. Here, the herbicidal compositions were suspended or emulsified in water as distribution medium and sprayed using finely distributing nozzles.
(§2) The respective herbicides B and/or safener were formulated as 10% by weight strength suspension concentrate and introduced to the spray liquor with the amount of solvent system used for applying the active compound. Herbicides A, C and/or safener were used as commercially available formulations and introduced to the spray liquor with the amount of solvent system used for applying the active compound. In the examples, the solvent used was water.
(§3) The test period extended over 21 days. During this time, the plants were tended, and their response to the treatments with active compound was evaluated.
(§4) The evaluation for the damage caused by the chemical compositions was carried out using a scale from 0 to 100%, compared to the untreated control plants. […]
(§5) The value E, which is to be expected if the activity of the individual compounds is just additive, was calculated using the method of S. R. Colby (1967) “Calculating synergistic and antagonistic responses of herbicide combinations”, Weeds 15, p. […] For two component mixtures the value E was calculated by the following formula E=X+Y−(X·Y/100)
(§6) For three component mixtures the value E was calculated by the following formula E=X+Y+Z−(XY+XZ+YZ)/100+(X·YZ/10000) where X=effect in percent using herbicide A at an application rate a; • Y=effect in percent using herbicide B at an application rate b; • Z=effect in percent using herbicide C at an application rate c; • E=expected effect (in %) of A+B at application rates a+b. or • E=expected effect (in %) of A+B+C at application rates a+b+c.
(§7) If the value observed in this manner is higher than the value E calculated according to Colby, a synergistic effect is present.
(§8) Tables 1 to 12 relate to the herbicidal activity of the individual actives and of their combinations in post-emergence application assessed 20 DAT.

[2] = tested on: Digitaria sanguinalis (DIGSA); experiment: greenhouse post-emergence herbicidal activity on DIGSA; conditions: Digitaria sanguinalis, 480 h, read-out: % activity 20 DAT
From the text: as §1, §2, §3
(§9) The evaluation for the damage caused by the chemical compositions was carried out using a scale from 0 to 100%, compared to the untreated control plants. Here, 0 means no damage and 100 means complete destruction of the plants.
(§10) The value E, which is to be expected if the activity of the individual compounds is just additive, was calculated using the method of S. R. Colby (1967) “Calculating synergistic and antagonistic responses of herbicide combinations”, Weeds 15, p. 22 ff. For two component mixtures the value E was calculated by the following formula E=X+Y−(X·Y/100)
as §6, §7, §8

[3] = tested on: Echinochloa crus-galli (ECHCG); experiment: greenhouse post-emergence herbicidal activity on ECHCG; conditions: Echinochloa crus-galli, 480 h, read-out: % activity 20 DAT
From the text: as §1, §2, §3, §4, §5, §6, §7, §8

[4] = tested on: Polygonum convolvulus (POLCO); experiment: greenhouse post-emergence herbicidal activity on POLCO; conditions: Fallopia convolvulus, 480 h, read-out: % activity 20 DAT
From the text: as §1, §2, §3, §9, §10, §6, §7, §8

[5] = tested on: Matricaria inermis (MATIN); experiment: greenhouse post-emergence herbicidal activity on MATIN
From the text: as §1, §2, §3, §9, §10, §6, §7, §8

[6] = tested on: Lolium multiflorum (LOLMU); experiment: greenhouse post-emergence herbicidal activity on LOLMU
From the text: as §1, §2, §3, §9, §10, §6, §7, §8

[7] = tested on: Sinapis arvensis (SINAR); experiment: greenhouse post-emergence herbicidal activity on SINAR; conditions: Mutarda arvensis, 480 h, read-out: % activity 20 DAT
From the text: as §1, §2, §3, §4, §5, §6, §7, §8

[8] = tested on: Alopecurus myosuroides (ALOMY); experiment: greenhouse post-emergence herbicidal activity on ALOMY
From the text: as §1, §2, §3, §9, §10, §6, §7, §8

[9] = tested on: Abutilon theophrasti (ABUTH); experiment: greenhouse post-emergence herbicidal activity on ABUTH
From the text: as §1, §2, §3, §9, §10, §6, §7, §8

[10] = tested on: Chenopodium album (CHEAL); experiment: greenhouse post-emergence herbicidal activity on CHEAL
From the text: as §1, §2, §3, §9, §10, §6, §7, §8

[11] = tested on: Setaria viridis (SETVI); experiment: greenhouse post-emergence herbicidal activity on SETVI; conditions: 480 h, read-out: % activity 20 DAT
From the text: as §1, §2, §3, §4, §5, §6, §7, §8

[12] = tested on: Galium aparine (GALAP); experiment: greenhouse post-emergence herbicidal activity on GALAP; conditions: solo application
From the text: as §1, §2, §3, §9, §10, §6, §7, §8

[13] = tested on: Avena fatua (AVEFA); experiment: greenhouse post-emergence herbicidal activity on AVEFA; conditions: 480 h, read-out: % activity 20 DAT
From the text: as §1, §2, §3, §9, §10, §6, §7, §8

O=C(O)CNCP(=O)(O)O [glyphosate, N-(phosphonomethyl)glycine]
inhibition at 50 g/ha [1]: 90% | inhibition at 50 g/ha [2]: 70% | inhibition at 100 g/ha [2]: 85% | inhibition at 50 g/ha [3]: 30% | inhibition at 50 g/ha [4]: 30% | inhibition at 100 g/ha [4]: 50% | inhibition at 200 g/ha [4]: 50% | inhibition at 400 g/ha [4]: 90% | inhibition at 100 g/ha ([5]; Matricaria, 480 h, read-out: % activity 20 DAT, post-emergence, solo application, 100 g ai/ha): 90% | inhibition at 400 g/ha ([5]; Matricaria, 480 h, read-out: % activity 20 DAT, post-emergence, solo application, 400 g ai/ha): 95% | % activity 20 DAT ([5]; solo application, 50 g ai/ha): 65% | inhibition at 50 g/ha ([6]; Lolium multiflorum, 480 h, read-out: % activity 20 DAT, post-emergence, solo application, 50 g ai/ha): 40% | inhibition at 100 g/ha ([6]; Lolium multiflorum, 480 h, read-out: % activity 20 DAT, post-emergence, solo application, 100 g ai/ha): 75% | % activity 20 DAT ([6]; solo application, 50 g ai/ha): 45% | inhibition at 50 g/ha [7]: 80% | inhibition at 50 g/ha ([8]; Alopecurus myosuroides, 480 h, read-out: % activity 20 DAT, post-emergence, solo application, 50 g ai/ha): 20% | inhibition at 100 g/ha ([8]; Alopecurus myosuroides, 480 h, read-out: % activity 20 DAT, post-emergence, solo application, 100 g ai/ha): 40% | inhibition at 200 g/ha ([8]; Alopecurus myosuroides, 480 h, read-out: % activity 20 DAT, post-emergence, solo application, 200 g ai/ha): 85% | % activity 20 DAT ([8]; solo application, 50 g ai/ha): 15% | % activity 20 DAT ([8]; solo application, 100 g ai/ha): 30% | inhibition at 50 g/ha ([9]; Abutilon theophrasti, 480 h, read-out: % activity 20 DAT, post-emergence, solo application, 50 g ai/ha): 0% | inhibition at 200 g/ha ([9]; Abutilon theophrasti, 480 h, read-out: % activity 20 DAT, post-emergence, solo application, 200 g ai/ha): 70% | inhibition at 50 g/ha ([10]; Chenopodium album, 480 h, read-out: % activity 20 DAT, post-emergence, solo application, 50 g ai/ha): 40% | inhibition at 200 g/ha ([10]; Chenopodium album, 480 h, read-out: % activity 20 DAT, post-emergence, solo application, 200 g ai/ha): 80% | % activity 20 DAT ([10]; solo application, 50 g ai/ha): 30% | % activity 20 DAT ([10]; solo application, 100 g ai/ha): 50% and 85% | inhibition at 50 g/ha [11]: 70% | % activity 20 DAT ([12]; 50 g ai/ha): 10% | inhibition at 100 g/ha [13]: 45%

Cn1nc(C(F)(F)F)c(CS(=O)(=O)C2=NOC(C)(C)C2)c1OC(F)F [pyroxasulfone, 3-[5-(difluoromethoxy)-1-methyl-3-(trifluoromethyl)pyrazol-4-ylmethylsulfonyl]-4,5-dihydro-5,5-dimethyl-1,2-oxazole]
inhibition at 12.5 g/ha ([1]; solo application, 12.5 g ai/ha): 75% | inhibition at 12.5 g/ha ([2]; solo application, 12.5 g ai/ha): 40% | inhibition at 25 g/ha ([2]; solo application, 25 g ai/ha): 50% | inhibition at 12.5 g/ha ([3]; solo application, 12.5 g ai/ha): 75% | inhibition at 12.5 g/ha ([4]; solo application, 12.5 g ai/ha): 35% | inhibition at 25 g/ha ([4]; solo application, 25 g ai/ha): 50% | inhibition at 50 g/ha ([4]; solo application, 50 g ai/ha): 50% | inhibition at 100 g/ha ([4]; solo application, 100 g ai/ha): 65% | inhibition at 12.5 g/ha ([5]; Matricaria, 480 h, solo application, 12.5 g ai/ha, read-out: % activity 20 DAT): 0% | inhibition at 25 g/ha ([5]; Matricaria, 480 h, solo application, 25 g ai/ha, read-out: % activity 20 DAT): 0% | inhibition at 100 g/ha ([5]; Matricaria, 480 h, solo application, 100 g ai/ha, read-out: % activity 20 DAT): 15% | inhibition at 12.5 g/ha ([6]; Lolium multiflorum, 480 h, solo application, 12.5 g ai/ha, read-out: % activity 20 DAT): 50% | inhibition at 25 g/ha ([6]; Lolium multiflorum, 480 h, solo application, 25 g ai/ha, read-out: % activity 20 DAT): 50% | % activity 20 DAT ([6]; solo application, 12.5 g ai/ha): 55% | inhibition at 12.5 g/ha ([7]; solo application, 12.5 g ai/ha): 65% | inhibition at 12.5 g/ha ([8]; Alopecurus myosuroides, 480 h, solo application, 12.5 g ai/ha, read-out: % activity 20 DAT): 30% | inhibition at 25 g/ha ([8]; Alopecurus myosuroides, 480 h, solo application, 25 g ai/ha, read-out: % activity 20 DAT): 50% | inhibition at 50 g/ha ([8]; Alopecurus myosuroides, 480 h, solo application, 50 g ai/ha, read-out: % activity 20 DAT): 50% | % activity 20 DAT ([8]; solo application, 12.5 g ai/ha): 40% | % activity 20 DAT ([8]; solo application, 25 g ai/ha): 70% | inhibition at 12.5 g/ha ([9]; Abutilon theophrasti, 480 h, solo application, 12.5 g ai/ha, read-out: % activity 20 DAT): 40% | inhibition at 50 g/ha ([9]; Abutilon theophrasti, 480 h, solo application, 50 g ai/ha, read-out: % activity 20 DAT): 70% | % activity 20 DAT ([9]; solo application, 12.5 g ai/ha): 60% | % activity 20 DAT ([9]; solo application, 25 g ai/ha): 65% | inhibition at 12.5 g/ha ([10]; Chenopodium album, 480 h, solo application, 12.5 g ai/ha, read-out: % activity 20 DAT): 20% | inhibition at 50 g/ha ([10]; Chenopodium album, 480 h, solo application, 50 g ai/ha, read-out: % activity 20 DAT): 20% | % activity 20 DAT ([10]; solo application, 12.5 g ai/ha): 35% | inhibition at 12.5 g/ha ([11]; solo application, 12.5 g ai/ha): 70% | inhibition at 25 g/ha ([12]; Galium aparine, 480 h, 25 g ai/ha, read-out: % activity 20 DAT): 80% | % activity 20 DAT ([12]; 12.5 g ai/ha): 70% and 40% | % activity 20 DAT ([12]; 25 g ai/ha): 85% | inhibition at 25 g/ha ([13]; solo application, 25 g ai/ha): 75%
